Assay results published in patent US20120108501A1, “Protease Inhibitors” (priority 2009, published 2012).

Assay: Pharmacokinetics of released PEGylated protease inhibitor following P.O. administration of prodrugs in rats
Format: in vivo, male Sprague-Dawley rats
Design: AUCall Mean: concentration or dose not given beside the values; C24 Mean: unit not given here
Settings: concentration at 24 hours; mPEG5-atazanavir in plasma after PO administration of mPEG5-ATV or of the listed prodrug, rats (n = 4-5)
Method: Pharmacokinetic analysis of protease inhibitors described herein was conducted. To evaluate the pharmacokinetics of PEGylated protease inhibitor conjugates with releasable lipophilic attachments, test compounds were administered to male Sprague-Dawley rats.
At various times following test article administration, serial blood samples were collected from indwelling jugular vein catheters and transferred to micro-tubes containing 7.5 μL of 20% w/v K2EDTA as an anticoagulant. Following processing of the blood samples to plasma (10 minutes at 10000 rpm, Centrifuge Model: Kubota 3500), plasma concentrations of the test article or corresponding PEGylated molecule released from the test article was measured using LC-MS/MS methods. Pharmacokinetic parameters were estimated using noncompartmental methods.

Compound | C24 Mean
COCCOCCOCCOCCOCCOC(=O)NC(C(=O)NC(Cc1ccccc1)C(CN(Cc1ccc(-c2ccccn2)cc1)NC(=O)C(NC(=O)OC)C(C)(C)C)OC(=O)CNC(=O)C(N)Cc1ccccc1)C(C)(C)C.Cl (stereo not drawn) [Phe-Gly-mPEG5-Atazanavir HCl, Phe-Gly-mPEG5-Atazanavir Hydrochloride] | 0.169

Same assay, conditions: concentration at 24 hours; mPEG6-atazanavir in plasma after PO administration of mPEG6-ATV or of the listed prodrug, rats (n = 4-5)

Compound | C24 Mean
CCOCOC(CN(Cc1ccc(-c2ccccn2)cc1)NC(=O)C(NC(=O)OC)C(C)(C)C)C(Cc1ccccc1)NC(=O)C(NC(=O)OCCOCCOCCOCCOCCOCCOC)C(C)(C)C (stereo not shown) [Methyl ethyl ether mPEG6-ATV, mPEG6-Atazanavir Methyl Ethyl Ether] | 0.00
CCOC(=O)OC(CN(Cc1ccc(-c2ccccn2)cc1)NC(=O)C(NC(=O)OC)C(C)(C)C)C(Cc1ccccc1)NC(=O)C(NC(=O)OCCOCCOCCOCCOCCOCCOC)C(C)(C)C (stereo not shown) [mPEG6-ATV-Ethyl Carbonate, mPEG6-Atazanavir Ethyl Carbonate] | 4.39

Same assay, conditions: mPEG3-atazanavir in plasma after PO administration of mPEG3-ATV or of the listed prodrug, rats (n = 4-5)

Compound | AUCall Mean [ng·h/mL] | Cmax Mean [ng/mL] | MRT last Mean [h] | Tmax* Median [h]
CCCCCCCCCCCCCCCCOCC(COP(=O)(O)OC(CN(Cc1ccc(-c2ccccn2)cc1)NC(=O)C(NC(=O)OC)C(C)(C)C)C(Cc1ccccc1)NC(=O)C(NC(=O)OCCOCCOCCOC)C(C)(C)C)OC (stereo not shown) [PEG3-Atazanavir Monophospholipid, mPEG3-atazanavir monophospholipid] | 7.72 | 18.7 | 0.640 | 0.250
COCCOCCOCCOC(=O)N[C@H](C(=O)N[C@@H](Cc1ccccc1)[C@H](CN(Cc1ccc(-c2ccccn2)cc1)NC(=O)[C@@H](NC(=O)OC)C(C)(C)C)OCOCCOC)C(C)(C)C [mPEG3 ATV-Methyl ethyl methyl ether, mPEG3-Atazanavir Methyl Ethyl Methyl Ether] | 4.10 | 0.951 | 1.93 | 2.00
COCCOCCOCCOC(=O)NC(C(=O)NC(Cc1ccccc1)C(CN(Cc1ccc(-c2ccccn2)cc1)NC(=O)C(NC(=O)OC)C(C)(C)C)OC(=O)C(N)C(C)C)C(C)(C)C.Cl [mPEG3-ATV-L-valine, mPEG3-Atazanavir-L-valine HCl] | 70.4 | 11.8 | 4.45 | 0.500
COCCOCCOCCOC(=O)N[C@H](C(=O)N[C@@H](Cc1ccccc1)[C@H](CN(Cc1ccc(-c2ccccn2)cc1)NC(=O)[C@@H](NC(=O)OC)C(C)(C)C)OP(=O)(O)O)C(C)(C)C [mPEG3-ATV-phosphate, mPEG3-atazanavir phosphate] | 16.8 | 1.66 | 7.37 | 1.25

Same assay, conditions: mPEG5-atazanavir in plasma after PO administration of mPEG5-ATV or of the listed prodrug, rats (n = 4-5)

Compound | AUCall Mean [ng·h/mL] | Cmax Mean [ng/mL] | MRT last Mean [h] | Tmax Median [h]
COCCOCCOCCOCCOCCOC(=O)N[C@H](C(=O)N[C@@H](Cc1ccccc1)[C@@H](O)CN(Cc1ccc(-c2ccccn2)cc1)NC(=O)[C@@H](NC(=O)OC)C(C)(C)C)C(C)(C)C [PEG5-ATV, mPEG5-atazanavir] | 389 | 57.6 | 9.61 | 0.750
COCCOCCOCCOCCOCCOC(=O)NC(C(=O)NC(Cc1ccccc1)C(CN(Cc1ccc(-c2ccccn2)cc1)NC(=O)C(NC(=O)OC)C(C)(C)C)OC(=O)CNC(=O)C(N)Cc1ccccc1)C(C)(C)C.Cl (stereo not drawn) [Phe-Gly-mPEG5-Atazanavir HCl, Phe-Gly-mPEG5-Atazanavir Hydrochloride] | 33.7 | 3.10 | 12.0 | 12.0
COCCOCCOCCOCCOCCOC(=O)NC(C(=O)NC(Cc1ccccc1)C(CN(Cc1ccc(-c2ccccn2)cc1)NC(=O)C(NC(=O)OC)C(C)(C)C)OC(=O)C(N)C(C)C)C(C)(C)C.Cl [mPEG5-ATV-L-valine, mPEG5-Atazanavir-L-valine HCl] | 9.14 | 1.09 | 6.89 | 1.00
COCCOCCOCCOCCOCCOC(=O)NC(C(=O)NC(Cc1ccccc1)C(CN(Cc1ccc(-c2ccccn2)cc1)NC(=O)C(NC(=O)OC)C(C)(C)C)OCOCCOC)C(C)(C)C (stereo not shown) [mPEG5-ATV-Methyl ethyl methyl ether, mPEG5-Atazanavir Methyl Ethyl Methyl Ether] | 32.7 | 3.74 | 4.92 | 2.00
COCCOCCOCCOCCOCCOC(=O)N[C@H](C(=O)N[C@@H](Cc1ccccc1)[C@H](CN(Cc1ccc(-c2ccccn2)cc1)NC(=O)[C@@H](NC(=O)OC)C(C)(C)C)OP(=O)(O)O)C(C)(C)C [mPEG5-ATV-phosphate, mPEG5-atazanavir phosphate] | 23.1 | 1.52 | 10.9 | 7.00
mPEG5-atazanavir-ethoxy-CME-Leu-Leu [mPEG5ATV-Ethoxy-CM-Leu-Leu] | 50.3 | 1.86 | 26.7 | 24.0

Same assay, conditions: mPEG6-atazanavir in plasma after PO administration of mPEG6-ATV or of the listed prodrug, rats (n = 4-5)

Compound | AUCall Mean [ng·h/mL] | Cmax Mean [ng/mL] | MRT last Mean [h] | Tmax Median [h]
CCOCOC(CN(Cc1ccc(-c2ccccn2)cc1)NC(=O)C(NC(=O)OC)C(C)(C)C)C(Cc1ccccc1)NC(=O)C(NC(=O)OCCOCCOCCOCCOCCOCCOC)C(C)(C)C (stereo not shown) [Methyl ethyl ether mPEG6-ATV, mPEG6-Atazanavir Methyl Ethyl Ether] | 202 | 38.3 | 10.1 | 2.00
COCCOCCOCCOCCOCCOCCOC(=O)N[C@H](C(=O)N[C@@H](Cc1ccccc1)[C@@H](O)CN(Cc1ccc(-c2ccccn2)cc1)NC(=O)[C@@H](NC(=O)OC)C(C)(C)C)C(C)(C)C [PEG6-ATV, mPEG6-atazanavir] | 97.6 | 26.8 | 4.93 | 0.250
COCCOCCOCCOCCOCCOCCOC(=O)N[C@H](C(=O)N[C@@H](Cc1ccccc1)[C@H](CN(Cc1ccc(-c2ccccn2)cc1)NC(=O)[C@@H](NC(=O)OC)C(C)(C)C)OC(=O)CNC(=O)[C@@H](N)Cc1ccccc1)C(C)(C)C.Cl [Phe-Gly-mPEG6-ATV, Phe-Gly-mPEG6-Atazanavir Hydrochloride] | 217 | 8.86 | 26.1 | 24.0
COCCOCCOCCOCCOCCOCCOC(=O)NC(C(=O)NC(Cc1ccccc1)C(CN(Cc1ccc(-c2ccccn2)cc1)NC(=O)C(NC(=O)OC)C(C)(C)C)OC(=O)C(CC(C)C)NC(=O)C(N)Cc1ccccc1)C(C)(C)C.Cl (stereo not drawn) [Phe-Leu-mPEG6-ATV, Phe-Leu-mPEG6-Atazanavir Hydrochloride] | 216 | 27.4 | 11.0 | 1.50
COCCOCCOCCOCCOCCOCCOC(=O)N[C@H](C(=O)N[C@@H](Cc1ccccc1)[C@H](CN(Cc1ccc(-c2ccccn2)cc1)NC(=O)[C@@H](NC(=O)OC)C(C)(C)C)OC(=O)[C@H](Cc1ccccc1)NC(=O)[C@@H](N)Cc1ccccc1)C(C)(C)C.Cl [Phe-Phe-mPEG6-ATV, Phe-Phe-mPEG6-Atazanavir Hydrochloride] | 279 | 27.0 | 16.2 | 2.00
COCCOCCOCCOCCOCCOCCOC(=O)NC(C(=O)NC(Cc1ccccc1)C(CN(Cc1ccc(-c2ccccn2)cc1)NC(=O)C(NC(=O)OC)C(C)(C)C)OC(=O)CNC(=O)C(N)C(C)C)C(C)(C)C.Cl (stereo not drawn) [Val-Gly-mPEG6-ATV, Val-GIy-mPEG6-Atazanavir Hydrochloride] | 194 | 5.11 | 24.3 | 7.00
COCCOCCOCCOCCOCCOCCOC(=O)NC(C(=O)NC(Cc1ccccc1)C(CN(Cc1ccc(-c2ccccn2)cc1)NC(=O)C(NC(=O)OC)C(C)(C)C)OC(=O)COCCOC(=O)C(Cc1ccccc1)NC(=O)C(N)Cc1ccccc1)C(C)(C)C (stereo not shown) [mPEG6-ATV-CME-Phe-Phe, mPEG6-atazanavir-ethoxy-CME-Phe-Phe] | 102 | 7.06 | 21.4 | 3.25
CCOC(=O)OC(CN(Cc1ccc(-c2ccccn2)cc1)NC(=O)C(NC(=O)OC)C(C)(C)C)C(Cc1ccccc1)NC(=O)C(NC(=O)OCCOCCOCCOCCOCCOCCOC)C(C)(C)C (stereo not shown) [mPEG6-ATV-Ethyl Carbonate, mPEG6-Atazanavir Ethyl Carbonate] | 207 | 19.9 | 10.3 | 1.50
COCCOCCOCCOCCOCCOCCOC(=O)NC(C(=O)NC(Cc1ccccc1)C(CN(Cc1ccc(-c2ccccn2)cc1)NC(=O)C(NC(=O)OC)C(C)(C)C)OC(=O)C(N)C(C)C)C(C)(C)C.Cl [mPEG6-ATV-L-valine, mPEG6-Atazanavir-L-Valine HCl] | 73.1 | 4.05 | 18.9 | 12.0
CCNC(=O)OC(CN(Cc1ccc(-c2ccccn2)cc1)NC(=O)C(NC(=O)OC)C(C)(C)C)C(Cc1ccccc1)NC(=O)C(NC(=O)OCCOCCOCCOCCOCCOCCOC)C(C)(C)C (stereo not shown) [mPEG6-ATV-ethylcarbamate, mPEG6-Atazanavir-NH-ethyl carbamate] | 3.07 | 0.634 | 15.1 | 1.00
COCCOCCOCCOCCOCCOCCOC(=O)NC(C(=O)NC(Cc1ccccc1)C(CN(Cc1ccc(-c2ccccn2)cc1)NC(=O)C(NC(=O)OC)C(C)(C)C)OP(=O)(O)O)C(C)(C)C (stereo not shown) [mPEG6-ATV-phosphate, mPEG6-atazanavir phosphate] | 12.1 | 1.23 | 23.4 | 6.13
mPEG6-atazanavir-ethoxy-CME-Leu-Leu [mPEG6-ATV-Ethoxy-CM-Leu-Leu] | 40.6 | 2.07 | 13.8 | 4.00
